Results on four molecules are retold here after patent US20260324697A1, “MATERIALS AND METHODS FOR MASKING BITTERNESS” (UNIVERSITY OF FLORIDA RESEARCH FOUNDATION, INCORPORATED, priority 2023, published 2026).

Structures can show the parent of a compound that is named as a salt.

Assay type in all cases: in vivo, persons (trained panelists)
Assay [1] is described as follows: Sensory panel testing of perceived sweetness of 6 ppm sucrose solutions. The note with it: for Panel Score (0-15), sweetness: 0: no sweetness, 15: very sweet. The source says: Similar panel testing was done to evaluate perceived sweetness of test solutions. Panelists swirled an aliquot of test solution in the mouth for 15 seconds, spit out the test solution, and rated the perceived sweetness intensity of the test solution on a scale of 0 to 15 (0: no sweetness, 15: very sweet). Panelists drank water after each test solution evaluation before evaluating the next test solution.
(§1) Panel testing results can be used to quantify perceived changes in sweetness in an analogous manner. The change in perceived sweetness of an ingestible composition following addition of a bitter-masking agent or other agent is defined herein as the percent change in the sweetness panel test rating of a composition to which a bitter-masking agent or other agent has been added compared to the sweetness panel test rating of the otherwise identical composition without the bitter-masking agent or other agent. For instance, if a composition is given a sweetness intensity rating of 8, and the same composition with addition of an amount of bitter-masking agent or other agent is given a sweetness intensity rating of 6, then the bitter-masking agent or other agent has provided a perceived change in sweetness of 25%.
A similar panel test was performed to assess whether the efficacy of Compound 1 at masking bitterness is derived from imparting sweetness. A solution of 6 ppm sucrose in distilled water was used as a sweetness control solution, and Compound 1 was added to three aliquots of the sweetness control solution to provide test solutions containing 6 ppm sucrose and 25, 50, or 100 ppm of Compound 1. Panelists then evaluated the sweetness intensity of each test solution.

A short description of assay [2]: Sensory panel testing of bitterness reduction of 6 ppm quinine solutions. The settings on record: for Panel Score (0-15), bitterness: 0: no bitterness, 15: very bitter.
Description: (§2) Sensory testing was used to identify extracts that provide bitterness reduction and to evaluate the degree of bitterness reduction provided by specific compounds. In general, bitterness sensory testing involved providing test solutions to trained panelists who rated the perceived bitterness of test solutions. Panels consisted of three persons who can taste phenylthiocarbamide (PTC) test paper, and panelists were selected based on their ability to discriminate differences in the concentrations of bitterness. Panelists swirled an aliquot of a solution in the mouth for 15 seconds, spit out the test solution, and rated the perceived bitterness intensity of the solution on a scale of 0 to 15 (0: no bitterness, 15: very bitter). Panelists drank water after each test solution evaluation to remove the bitterness before evaluating the next solution.
as §1, with “bitterness.” for “sweetness in an analogous manner.”, “bitterness” for “sweetness”, “agent” for “agent or other agent”, “bitter-masking” for “bitter-masking agent or other”
Compound 1 was evaluated by sensory panel testing. A solution of 6 ppm quinine monohydrochloride dihydrate in distilled water was used as a control solution having high bitterness, and Compound 1 was added to aliquots of the control solution to provide test solutions containing 6 ppm quinine and 25, 50, or 100 ppm of Compound 1.
Compounds 2-5 were also evaluated by sensory panel testing in the same manner as Compound 1.
Sensory panel tests were also performed to evaluate whether crude extracts from allspice would be effective at reducing bitterness. Allspice was mixed with boiling water to obtain a crude aqueous mixture, and solvent was removed from the crude aqueous mixture using rotary evaporation to obtain a crude extract. The crude extract was used without further purification. An aqueous solution containing 6 ppm quinine was used as a bitterness control solution, and the crude extract was added to aliquots of the control solution to provide test solutions containing 6 ppm quinine and 100 ppm or 1000 ppm of the crude extract. The three solutions were evaluated by a sensory panel as described above.

Assay [3] is described as follows: Sensory panel testing of bitterness reduction of 500 ppm caffeine solutions. The settings on record: for Panel Score (0-15), bitterness: 0: no bitterness, 15: very bitter.
Description: as §2
as §1, with “bitterness.” for “sweetness in an analogous manner.”, “bitterness” for “sweetness”, “agent” for “agent or other agent”, “bitter-masking” for “bitter-masking agent or other”
Compound 1 was evaluated by sensory panel testing for bitterness reduction of caffeine solutions. A solution of 500 ppm caffeine in distilled water was used as a control solution having high bitterness, and Compound 1 was added to aliquots of the control solution to provide test solutions containing 500 ppm caffeine and 25, 50, or 100 ppm of Compound 1.

For the molecule `OC[C@H]1O[C@@](CO)(O[C@H]2O[C@H](CO)[C@@H](O)[C@H](O)[C@H]2O)[C@@H](O)[C@@H]1O` [sucrose, reference compound], the “Panel Score (0-15), sweetness” value in assay [1] (6 ppm sucrose alone (control)) was 7.0.

With `C=C[C@H]1C[N@@]2CC[C@H]1C[C@H]2[C@H](O)c1ccnc2ccc(OC)cc12` [quinine, quinine monohydrochloride dihydrate, reference compound], the “Panel Score (0-15), bitterness” value in assay [2] (6 ppm quinine alone (control), Example 2) turned out to be 6.0; in assay [2] (6 ppm quinine alone (control), Example 3) it was 6.0.

For the molecule `COc1cc(C[C@@H](O)CO)ccc1O` [Compound 1, (2R)-3-(4-hydroxy-3-methoxyphenyl) propane-1,2-diol], the “Panel Score (0-15), bitterness” value turned out to be 3.5 in assay [3] (25 ppm Compound 1 added to 500 ppm caffeine); 4.0 in assay [3] (50 ppm Compound 1 added to 500 ppm caffeine); 3.8 in assay [3] (100 ppm Compound 1 added to 500 ppm caffeine); 5.0 in assay [2] (25 ppm Compound 1 added to 6 ppm quinine); 3.0 in assay [2] (50 ppm Compound 1 added to 6 ppm quinine); 0.8 in assay [2] (100 ppm Compound 1 added to 6 ppm quinine). For the same molecule, in assay [3] (500 ppm caffeine, 25, 50, or 100 ppm Compound 1), the “masking of the bitterness of caffeine solutions” value is listed as “did not significantly mask the bitterness of caffeine solutions”. For the same molecule, the “contribution to perceived sweetness of the test solutions” value in assay [1] (6 ppm sucrose, 25, 50, or 100 ppm Compound 1) was “did not contribute to perceived sweetness of the test solutions”. The figures for the “Panel Score (0-15), sweetness” value in assay [1] (25 ppm Compound 1 added to 6 ppm sucrose), in assay [1] (50 ppm Compound 1 added to 6 ppm sucrose) and in assay [1] (100 ppm Compound 1 added to 6 ppm sucrose) were 7.2, 6.8 and 7.2, respectively. Further, the “perceived bitterness of quinine solutions” value in assay [2] (6 ppm quinine, 25, 50, or 100 ppm Compound 1) is recorded as “markedly reduced the perceived bitterness of quinine solutions”.

For `Cn1c(=O)c2c(ncn2C)n(C)c1=O` [caffeine, reference compound], the “Panel Score (0-15), bitterness” value in assay [3] (500 ppm caffeine alone (control)) turned out to be 3.0.
